This assay addresses T1, PARP-1 (Homo sapiens, UniProt P09874).
T1 construct: purchased Trevigen
As to the kind of experiment: PARP-1 inhibitory activity, HT universal colorimetric PARP assay kit (Trevigen). In kind it is biochemical. The note with it: estimation as calculated from a 4 point dose response curve; read-out: PARP-1 activity in vitro IC50. Here is the method:
The compounds were tested for PARP-1 inhibitory activity by using HT universal colorimetric PARP assay kit obtained from Trevigen, following manufacturer's protocol.

T1 sequence (P09874 whole entry): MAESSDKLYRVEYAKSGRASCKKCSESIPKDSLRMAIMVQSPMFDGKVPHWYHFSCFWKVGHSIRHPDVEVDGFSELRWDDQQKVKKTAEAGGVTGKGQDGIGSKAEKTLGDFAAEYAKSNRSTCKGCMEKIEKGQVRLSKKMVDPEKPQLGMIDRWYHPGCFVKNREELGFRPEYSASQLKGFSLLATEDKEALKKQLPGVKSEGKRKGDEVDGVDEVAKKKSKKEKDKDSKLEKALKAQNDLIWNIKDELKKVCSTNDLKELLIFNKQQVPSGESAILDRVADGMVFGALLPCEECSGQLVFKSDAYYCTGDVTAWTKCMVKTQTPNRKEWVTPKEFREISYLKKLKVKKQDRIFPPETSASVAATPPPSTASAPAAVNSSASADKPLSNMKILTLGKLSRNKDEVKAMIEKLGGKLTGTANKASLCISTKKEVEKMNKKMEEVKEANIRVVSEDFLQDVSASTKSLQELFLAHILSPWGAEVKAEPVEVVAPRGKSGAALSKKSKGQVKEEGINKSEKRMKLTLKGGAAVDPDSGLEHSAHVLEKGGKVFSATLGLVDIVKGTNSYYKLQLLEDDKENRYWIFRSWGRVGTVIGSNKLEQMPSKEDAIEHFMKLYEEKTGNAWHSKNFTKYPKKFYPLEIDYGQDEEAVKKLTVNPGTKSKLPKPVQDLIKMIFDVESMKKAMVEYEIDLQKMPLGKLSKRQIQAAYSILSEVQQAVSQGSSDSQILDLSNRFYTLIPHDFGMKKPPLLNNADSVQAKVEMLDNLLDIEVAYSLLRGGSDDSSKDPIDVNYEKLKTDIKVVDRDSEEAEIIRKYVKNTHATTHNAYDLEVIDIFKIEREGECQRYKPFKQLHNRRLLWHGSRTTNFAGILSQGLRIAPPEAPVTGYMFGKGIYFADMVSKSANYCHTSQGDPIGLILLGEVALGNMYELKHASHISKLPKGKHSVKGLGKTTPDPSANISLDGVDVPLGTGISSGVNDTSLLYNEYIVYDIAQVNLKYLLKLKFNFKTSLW

Regarding `O=C(c1cc(Cc2n[nH]c(=O)c3ccccc23)ccc1F)N1CC2CCCC2C1` (stereo not drawn) [Compound 23, 4-(4-fluoro-3-(octahydrocyclopenta[c]pyrrole-2-carbonyl)benzyl)phthalazin-1(2H)-one], the half-inhibitory concentration (IC50) was 67.8 nM.
The result for `O=C(c1cc(Cc2n[nH]c(=O)c3ccccc23)ccc1F)N1CC2CN(Cc3ccc(F)cc3)CC2C1` (stereo not drawn) [Compound 24, 4-(4-fluoro-3-(5-(4-fluorobenzyl)octahydropyrrolo[3,4-c]pyrrole-2-carbonyl)benzyl) phthalazin-1 (2H)-one] reads 9.85 nM.
As for `O=C(c1cc(Cc2n[nH]c(=O)c3ccccc23)ccc1F)N1CC2CN(Cc3ccccc3F)CC2C1` (stereo not drawn) [Compound 25, 4-(4-fluoro-3-(5-(2-fluorobenzyl)octahydropyrrolo[3,4-c]pyrrole-2-carbonyl)benzyl) phthalazin-1(2H)-one], the IC50 was 27.8 nM.
The same measure for `COc1cccc(CN2CC3CN(C(=O)c4cc(Cc5n[nH]c(=O)c6ccccc56)ccc4F)CC3C2)n1` (stereo not drawn) [Compound 26]: 36 nM; for `CN1C(=O)C2CN(C(=O)c3cc(Cc4n[nH]c(=O)c5ccccc45)ccc3F)CC2C1=O` (stereo not drawn) [Compound 27, 5-(2-fluoro-5-((4-oxo-3,4-dihydrophthalazin-1-yl)methyl)benzoyl)-2-methyl tetrahydropyrrolo[3,4-c]pyrrole-1,3(2H,3aH)-dione]: 12.5 nM; for `O=C(c1cc(Cc2n[nH]c(=O)c3ccccc23)ccc1F)N1CC2=C(C1)CS(=O)(=O)C2` [Compound 29, 4-(3-(2,2-dioxido-3,4,5,6-tetrahydro-1H-thieno[3,4-c]pyrrole-5-carbonyl)-4-fluorobenzyl)phthalazin-1(2H)-one]: 18.4 nM.
The result for `O=C(c1cc(Cc2n[nH]c(=O)c3ccccc23)ccc1F)N1Cc2cscc2C1` [Compound 30, 4-(3-(5,6-dihydro-4H-thieno[3,4-c]pyrrole-5-carbonyl)-4-fluorobenzyl)phthalazin-1(2H)-one] reads 9.87 nM; that for `O=C(c1cc(Cc2n[nH]c(=O)c3ccccc23)ccc1F)N1CC2=C(CNC2)C1` [Compound 31, 4-(4-fluoro-3-(1,2,3,4,5,6-hexahydropyrrolo[3,4-c]pyrrole-2-carbonyl)benzyl) phthalazin-1(2H)-one], 24.2 nM; that for `O=C(c1cc(Cc2n[nH]c(=O)c3ccccc23)ccc1F)N1CC2CN(c3ccccc3)CC2C1` (stereo not drawn) [Compound 32, 4-(4-fluoro-3-(5-phenyloctahydropyrrolo[3,4-c]pyrrole-2-carbonyl)benzyl)phthalazin-1(2H)-one], 11.5 nM.
With `CN1CC2=C(C1)CN(C(=O)c1cc(Cc3n[nH]c(=O)c4ccccc34)ccc1F)C2` [Compound 33, 4-(4-fluoro-3-(5-methyl-1,2,3,4,5,6-hexahydropyrrolo[3,4-c]pyrrole-2-carbonyl)benzyl) phthalazin-1 (2H)-one], the half-maximal inhibitory concentration (IC50) is 28.5 nM.
The same measure for `O=C(c1cc(Cc2n[nH]c(=O)c3ccccc23)ccc1F)N1CC2CN(C(F)F)CC2C1` (stereo not drawn) [Compound 38, 4-(3-(5-(difluoromethyl)octahydropyrrolo[3,4-c]pyrrole-2-carbonyl)-4-fluorobenzyl) phthalazin-1 (2H)-one]: 91 nM; for `O=C1C[C@@H]2CN(C(=O)c3cc(Cc4n[nH]c(=O)c5ccccc45)ccc3F)C[C@@H]2C1` [Compound 39, 4-(4-fluoro-3-((3 aR,6aS)-5-oxooctahydrocyclopenta[c]pyrrole-2-carbonyl)benzyl) phthalazin-1 (2H)-one]: 54.5 nM.
Consider `CCn1cc2c(n1)CN(C(=O)c1cc(Cc3n[nH]c(=O)c4ccccc34)ccc1F)C2` [Compound 41, 4-(3-(2-ethyl-2,4,5,6-tetrahydropyrrolo[3,4-c]pyrazole-5-carbonyl)-4-fluorobenzyl) phthalazin-1 (2H)-one], for which the IC50 was 8.9 nM.
The same measure for `CCn1ncc2c1CN(C(=O)c1cc(Cc3n[nH]c(=O)c4ccccc34)ccc1F)C2` [Compound 42, 4-(3-(1-ethyl-1,4,5,6-tetrahydropyrrolo[3,4-c]pyrazole-5-carbonyl)-4-fluorobenzyl) phthalazin-1 (2H)-one]: 48.6 nM; for `CC(C)n1ncc2c1CN(C(=O)c1cc(Cc3n[nH]c(=O)c4ccccc34)ccc1F)C2` [Compound 43, 4-(4-fluoro-3-(1-isopropyl-1,4,5,6-tetrahydropyrrolo[3,4-c]pyrazole-5-carbonyl)benzyl)phthalazin-1 (2H)-one]: 55.1 nM.
Consider `CC(C)n1cc2c(n1)CN(C(=O)c1cc(Cc3n[nH]c(=O)c4ccccc34)ccc1F)C2` [Compound 45, 4-(4-fluoro-3-(2-isopropyl-2,4,5,6-tetrahydropyrrolo[3,4-c]pyrazole-5-carbonyl)benzyl) phthalazin-1(2H)-one], for which the IC50 is 13.8 nM.
The same measure for `O=C(c1cc(Cc2n[nH]c(=O)c3ccccc23)ccc1F)N1C[C@@H]2CC(F)(F)C[C@@H]2C1` [Compound 46, 4-(3-((3 aR,6aS)-5,5-difluorooctahydrocyclopenta[c]pyrrole-2-carbonyl)-4-fluorobenzyl)phthalazin-1(2H)-one]: 27.8 nM; for `COCCN1CC2CN(C(=O)c3cc(Cc4n[nH]c(=O)c5ccccc45)ccc3F)CC2C1` (stereo not drawn) [Compound 47, 4-(4-fluoro-3-(5-(2-methoxyethyl)octahydropyrrolo[3,4-c]pyrrole-2-carbonyl)benzyl) phthalazin-1 (2H)-one]: 48.3 nM; for `O=C(NC1C[C@@H]2CN(C(=O)c3cc(Cc4n[nH]c(=O)c5ccccc45)ccc3F)C[C@@H]2C1)C1CC1` (stereo partly drawn) [Compound 48, N-((3 aR,6aS)-2-(2-fluoro-5-((4-oxo-3,4-dihydrophthalazin-1-yl)methyl)benzoyl)octahydrocyclopenta[c]pyrrol-5-yl)cyclopropanecarboxamide]: 74.5 nM.
`Cn1ncc2c1CN(C(=O)c1cc(Cc3n[nH]c(=O)c4ccccc34)ccc1F)C2` [Compound 54, 4-(4-fluoro-3-(1-methyl-1,4,5,6-tetrahydropyrrolo[3,4-c]pyrazole-5-carbonyl)benzyl) phthalazin-1 (2H)-one benzenesulfonate]: the IC50 was 15.4 nM.
The same measure for `CC(C)n1cc2c(n1)CN(C(=O)c1cc(Cc3n[nH]c(=O)c4ccccc34)ccc1F)C2` [Compound 55, 5-(2-fluoro-5-((4-oxo-3,4-dihydrophthalazin-1-yl)methyl)benzoyl)-2-isopropyl-2,4,5,6-tetrahydropyrrolo[3,4-c]pyrazol-2-ium hydrogensulfate]: 13.2 nM; for “Mixture of 1 & 2 Ethyl 4-(3-(2,4,5,6-tetrahydropyrrolo[3,4-c]pyrazole-5-carbonyl)-4-fluorobenzyl)phthalazin-1(2H)-one [Compound 40]”: 9.9 nM.
The result for “Mixture of 4-(4-fluoro-3-(1-methyl-1,4,5,6-tetrahydropyrrolo[3,4-c]pyrazole-5-carbonyl)benzyl)phthalazin-1(2H)-one compound with 4-(4-fluoro-3-(2-methyl-2,4,5,6-tetrahydropyrrolo[3,4-c]pyrazole-5-carbonyl)benzyl)phthalazin-1(2H)-one (1:3) [Compound 28]” reads 20.7 nM.
The same measure for “Mixture of (1 & 2 isopropyl) 4-(4-fluoro-3-(1,4,5,6-tetrahydropyrrolo[3,4-c]pyrazole-5-carbonyl)benzyl)phthalazin-1(2H)-one [Compound 44]”: 19.9 nM.

In general, IC50 refers to the concentration that gives 50% inhibition.

(Values after patent US9598418B2, “Substituted phthalazin-1 (2H)-one derivatives as selective inhibitors of poly (ADP-ribose) polymerase-1” (CADILA HEALTHCARE LIMITED, priority 2012, dated 2017).)
